Patent US12441691B2 (Cytokinetics, Inc., priority 2020, dated 2025)
In brackets after ≈: the same amount, converted by molar mass.

How the values were obtained:
[1] = test system: ankle plantarflexor muscle; test: Rat isometric ankle plantarflexor muscle force; format: in vivo, Sprague Dawley rats; conditions: continuous intravenous infusion over sixty minutes, 30 Hz nerve stimulation, estimated EC50 = concentration at which muscle force is 50% of pre-dose maximum tension
Source text: Female Sprague Dawley rats were placed under a stable anesthetic plane with inhaled isoflurane (1-5%). One incision was made on the mid-thigh region of the right leg to expose the sciatic nerve. To prevent co-contraction of the ankle dorsiflexors, an additional incision was made lateral to the patella to isolate and sever the peroneal nerve. Rats were then placed on a temperature-maintained in situ muscle analysis rig (Aurora Scientific, Model 806C). The knee was immobilized in a clamp between two sharpened screws and the foot was taped to a footplate attached to a force transducer (Aurora Scientific, Ontario, Canada). Stainless steel needle electrodes (0.10 mm) were hooked around the exposed sciatic nerve. Isometric ankle plantarflexor muscle contractile force was assessed with the ankle joint at 90° flexion. A 30 Hz electrical stimulation (under supramaximal voltage conditions) was applied to the nerve and the resulting muscle force was recorded via a servomotor. A pre-dose 30 Hz force response was established as the baseline force. A pre-dose 150 Hz force response was established as the maximum isometric force. Compounds were formulated in 50% polyethylene glycol (PEG): 16% Cavitron: 10% dimethylacetamide (DMA) and administered by continuous intravenous infusion over a sixty minute period. The muscle force response to compound was measured every two minutes over the dosing period. Data were reported as an estimated EC50 value, which is the concentration at which muscle force is 50% of the pre-dose maximum tension. In Table 10, “Example Compound” refers to the compound labeled with the same number in Table 2.

[2] = test system: rabbit skeletal myofibrils (fast skeletal myofibrils); test: Activation of fast skeletal myofibrils (PUMA assay, AC1.4); format: biochemical; conditions: calcium at pCa25, AC1.4 = concentration at which the compound increased the enzymatic activity
Procedure, shortened: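 In 12 mM PIPES pH 6.8 with 2 mM MgCl2 and 1 mM DTT, Triton-washed rabbit skeletal myofibrils were run at the pCa25 calcium level. Myosin-made ADP was recycled through a PK/LDH coupled system; NADH loss read at 340 nm.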

[3] = Thermodynamic aqueous solubility (FaSSIF); format: physicochemical
Description: Aqueous solubility was determined by suspending sufficient compound in relevant media to give a maximum final concentration of >10 mg/ml of the parent free-form of the compound. The suspension was equilibrated at 37° C., on a Heidolph plate shaker set to 750 rpm for 24 hours. The pH of the saturated solution was then measured, and the suspension filtered through a glass fibre C filter (particle retention 1.2 μm) and diluted appropriately. Quantitation was by HPLC with reference to a standard solution of approximately 0.15 mg/ml in DMSO. Different volumes of the standard, diluted and undiluted sample solutions were injected. The solubility was calculated using the peak areas determined by integration of the peak found at the same retention time as the principal peak in the standard injection.

[4] = Gravimetric vapour sorption (GVS); format: physicochemical; conditions: for GVS mass change / GVS water uptake, mol equivalents of water: between 0 and 90% RH, 25° C.; for XRPD after GVS analysis: form after GVS measurement; for Hygroscopicity by GVS: 0-90% RH
Description: Sorption isotherms were obtained using a SMS DVS Intrinsic moisture sorption analyser, controlled by DVS Intrinsic Control software. The sample temperature was maintained at 25° C. by the instrument controls. The humidity was controlled by mixing streams of dry and wet nitrogen, with a total flow rate of 200 ml/min. The relative humidity was measured by a calibrated Rotronic probe (dynamic range of 1.0-100% RH), located near the sample. The weight change, (mass relaxation) of the sample as a function of % RH was constantly monitored by a microbalance (accuracy ±0.005 mg).
Typically, 5-30 mg of sample was placed in a tared mesh stainless steel basket under ambient conditions. The sample was loaded and unloaded at 40% RH and 25° C. (typical room conditions). A moisture sorption isotherm was performed as outlined below (2 scans per complete cycle). The standard isotherm was performed at 25° C. at 10% RH intervals over a 0-90% RH range. Typically, a double cycle (4 scans) was carried out. Data analysis was carried out within Microsoft Excel using the DVS Analysis Suite.
The sample was recovered after completion of the isotherm and re-analysed by XRPD.

[5] = Water determination by Karl Fischer titration (KF); format: physicochemical
Description: The water content of each sample was measured on a Metrohm 874 Oven Sample Processor at 150° C. with 851 Titrano Coulometer using Hydranal Coulomat AG oven reagent and nitrogen purge. Weighed solid samples were introduced into a sealed sample vial. Approximately 10 mg of sample was used per titration and duplicate determinations were made. […] Data collection and analysis were performed using Tiamo software.

[6] = Static storage stability of crystalline form by XRPD; format: physicochemical
[7] = 40° C./75% RH, 7 days (one week)

Compound	EC50 [1] [µM]	AC1.4 [2] [µM]	further results
CC[C@H](C)[C@H]1C(=O)Nc2ccccc2CN1C(=O)CC(N)=O [Compound 1, 3-((S)-3-((S)-sec-Butyl)-2-oxo-1,2,3,5-tetrahydro-4H-benzo[e][1,4]diazepin-4-yl)-3-oxopropanamide]	26.2	0.91	
CC[C@H](C)[C@H]1C(=O)Nc2ccccc2CN1/C(N)=N/C#N [Compound 2, (S,E)-3-((S)-sec-Butyl)-N′-cyano-2-oxo-1,2,3,5-tetrahydro-4H-benzo[e][1,4]diazepine-4-carboximidamide]	19.1	0.08	
CC[C@H](C)[C@H]1C(=O)Nc2ccccc2CN1CC(N)=O [Compound 6, 2-((S)-3-((S)-sec-Butyl)-2-oxo-1,2,3,5-tetrahydro-4H-benzo[e][1,4]diazepin-4-yl)acetamide]	20.3	0.89	
CC(C)[C@H]1C(=O)Nc2ccccc2CN1C(N)=O [Compound 7, (S)-3-Isopropyl-2-oxo-1,2,3,5-tetrahydro-4H-benzo[e][1,4]diazepine-4-carboxamide]	41.1	1.80	
CC[C@H](C)[C@H]1C(=O)Nc2cc(F)cc(F)c2CN1C(N)=O [Compound 8, (S)-3-((S)-sec-butyl)-6,8-difluoro-2-oxo-1,2,3,5-tetrahydro-4H-benzo[e][1,4]diazepine-4-carboxamide]	15.2	0.37	
CC[C@H](C)[C@H]1C(=O)Nc2ccc(F)cc2CN1C(N)=O [Compound 9, (S)-3-((S)-sec-Butyl)-7-fluoro-2-oxo-1,2,3,5-tetrahydro-4H-benzo[e][1,4]diazepine-4-carboxamide]	19.1	0.28	
CC[C@H](C)[C@H]1C(=O)Nc2cncc(F)c2CN1C(N)=O [Compound 10, (S)-3-((S)-sec-Butyl)-6-fluoro-2-oxo-1,2,3,5-tetrahydro-4H-pyrido[3,4-e][1,4]diazepine-4-carboxamide]	18.8	0.71	
CC[C@H](C)[C@H]1C(=O)Nc2cnccc2CN1C(N)=O [Compound 12, (S)-3-((S)-sec-butyl)-2-oxo-1,2,3,5-tetrahydro-4H-pyrido[3,4-e][1,4]diazepine-4-carboxamide]	38.7	0.84	
CC[C@H](C)[C@H]1C(=O)Nc2ccccc2CN1C(=O)N1CC(O)C1 [Compound 32, (S)-3-((S)-sec-Butyl)-4-(3-hydroxyazetidine-1-carbonyl)-1,3,4,5-tetrahydro-2H-benzo[e][1,4]diazepin-2-one]	12.6	0.13	
CC[C@H](C)[C@H]1C(=O)Nc2ccccc2CN1C(=O)CCO [Compound 49, (S)-3-((S)-sec-butyl)-4-(3-hydroxypropanoyl)-1,3,4,5-tetrahydro-2H-benzo[e][1,4]diazepin-2-one]	28	0.55	
CC(C)[C@H]1C(=O)Nc2ccccc2CN1/C(N)=N/C#N [Compound 64, (S,E)-N′-Cyano-3-isopropyl-2-oxo-1,2,3,5-tetrahydro-4H-benzo[e][1,4]diazepine-4-carboximidamide]	20.1	0.53	
CC[C@H](C)[C@H]1C(=O)Nc2cccc(F)c2CN1C(N)=O [Compound 65, (S)-3-((S)-sec-butyl)-6-fluoro-2-oxo-1,2,3,5-tetrahydro-4H-benzo[e][1,4]diazepine-4-carboxamide]	11.3	0.37	
CC[C@H](C)[C@H]1C(=O)Nc2cnccc2CN1/C(N)=N/C#N [Compound 82, (S,E)-3-((S)-sec-butyl)-N′-cyano-2-oxo-1,2,3,5-tetrahydro-4H-pyrido[3,4-e][1,4]diazepine-4-carboximidamide]	21.4	0.24	
CC[C@H](C)[C@H]1C(=O)Nc2ccccc2CN1C(=O)N[C@H]1CCN(C)C1 [Compound 144, (S)-3-((S)-sec-butyl)-N-((S)-1-methylpyrrolidin-3-yl)-2-oxo-1,2,3,5-tetrahydro-4H-benzo[e][1,4]diazepine-4-carboxamide]	10.5	0.28	
CC(C)[C@H]1C(=O)Nc2cc(F)ccc2CN1C(N)=O [Compound 357, (S)-8-fluoro-3-isopropyl-2-oxo-1,2,3,5-tetrahydro-4H-benzo[e][1,4]diazepine-4-carboxamide]	58.3	1.69	
CC[C@H](C)[C@H]1C(=O)Nc2cnccc2N1/C(=N/C#N)Oc1ccccc1 [Compound 380, phenyl (S,Z)-2-((S)-sec-butyl)-N-cyano-3-oxo-3,4-dihydropyrido[3,4-b]pyrazine-1(2H)-carbimidate]		1.25	
CC[C@H](C)[C@H]1C(=O)Nc2cnccc2CN1c1c(NCCOC)c(=O)c1=O [Compound 381, 3-((S)-3-((S)-sec-butyl)-2-oxo-1,2,3,5-tetrahydro-4H-pyrido[3,4-e][1,4]diazepin-4-yl)-4-((2-methoxyethyl)amino)cyclobut-3-ene-1,2-dione]		0.48	
CC[C@H](C)[C@H]1C(=O)Nc2cncc(F)c2CN1C(N)=O [Crystalline Form I, (S)-3-((S)-sec-Butyl)-6-fluoro-2-oxo-1,2,3,5-tetrahydro-4H-pyrido[3,4-e][1,4]diazepine-4-carboxamide]			XRPD of solid residues ([3]; solid residues after thermodynamic solubility in FaSSIF (37° C.)): Form I; solubility thermodynamic at 24 h ([3]; thermodynamic from solid, FaSSIF, 37° C., equilibrated 24 hours): 460 µg/mL (≈ 1640 µM); GVS mass change [4]: 0.29% Mass change between 0 and 90% RH.; GVS water uptake, mol equivalents of water [4]: 0.04 mol. equivalents water; XRPD after GVS analysis [4]: Unchanged; KF water content [5]: 0.1% water
CC[C@H](C)[C@H]1C(=O)Nc2cncc(F)c2CN1C(N)=O [Form II]			Hygroscopicity by GVS [4]: slightly hygroscopic; GVS mass change [4]: 0.23%; XRPD after GVS analysis [4]: unchanged; Static storage, XRPD [6, 7]: no changes
CC[C@H](C)[C@H]1C(=O)Nc2cncc(F)c2CN1C(N)=O [Form I]			Hygroscopicity by GVS [4]: slightly hygroscopic; GVS mass change [4]: 0.29%; GVS water uptake, mol equivalents of water [4]: 0.04 mol. equivalents water; XRPD after GVS analysis [4]: unchanged; Static storage, XRPD ([6]; 25° C./97% RH (one week for Form I)): unchanged; Static storage, XRPD [6, 7]: unchanged; KF water content [5]: 0.1%
